Our source for the mortality values is ChEMBL document CHEMBL3045154, “Synthesis and Insecticidal Activity of 1, 3-Dithianes” (1991).

Common to all, as to type: functional
The test system of assay [1] is Chilo suppressalis. The experiment in a line: Insecticidal activity against 5th instar larva of Chilo suppressalis assessed as mortality at 50 ug/g after 48 hr.
For assay [2], the system named is Tetranychus urticae. The experiment in a line: Insecticidal activity against Tetranychus urticae (two-spotted spider mite) in kidney bean plant leaf assessed as mortality at 500 ppm after 2 days. The note with it: 48 h.
The subject of assay [3] is Henosepilachna vigintioctopunctata. Briefly: Insecticidal activity against third-instar larvae of Henosepilachna vigintioctopunctata assessed as mortality at 100 ppm after 2 days. The note with it: 48 h.

By mortality is commonly meant the percentage killed. Take `N#CC1(c2ccc(Cl)cc2)SCCCS1`: the mortality in assay [1] was 0%. The mortality at 500 ppm in assay [2] stood at 0%.
Turning to `CN(C)C1CSC(C#N)(c2ccc(Cl)cc2)SC1` (stereo unspecified), in assay [1], the mortality amounted to 100%. The mortality at 500 ppm in assay [2] stood at 100%.
Consider `CCOC(=O)C1SCC(N(C)C)CS1` (stereo unspecified), for which the mortality at 100 ppm in assay [3] is 45%. Moreover, the mortality in assay [1] came out at 80%. In addition, the mortality at 500 ppm in assay [2] was found to be 100%.
With `CN(C)C1CSSC1` [NEREISTOXIN], the mortality in assay [1] is on record as 100%. In addition, the mortality at 500 ppm in assay [2] stood at 30%.
Consider `N#CC1(C(=O)O)SCCCS1`, for which the mortality in assay [1] is 0%. In assay [2], the mortality at 500 ppm stood at 0%.
As for `CCCC1(C#N)SCC(N(C)C)CS1` (stereo unspecified), the mortality at 100 ppm in assay [3] stood at 30%. In assay [1], the mortality was 100%. Moreover, the mortality at 500 ppm in assay [2] was 70%.
`C/C(=N\Nc1ccc(Br)cc1)C1SCC(N(C)C)CS1` (stereo unspecified): the mortality at 100 ppm in assay [3] worked out at 45%. In assay [1], the mortality is 100%. Further, the mortality at 500 ppm in assay [2] stood at 80%.
Regarding `CCOP(=O)(OCC)C1(C#N)SCC(N(C)C)CS1` (stereo unspecified), the mortality at 100 ppm in assay [3] was 5%. The mortality in assay [1] is 100%. In assay [2], the mortality at 500 ppm was 100%.
Turning to `CCOC(=O)C1(C(=O)OCC)SCC(N(C)C)CS1`, the mortality at 100 ppm in assay [3] is 85%. In assay [1], the mortality worked out at 100%. Moreover, the mortality at 500 ppm in assay [2] is 100%.
As for `CN(C)C1CSC(C#N)(C(N)=O)SC1` (stereo unspecified), the mortality at 100 ppm in assay [3] turned out to be 85%. The mortality in assay [1] turned out to be 100%. Moreover, the mortality at 500 ppm in assay [2] stood at 100%.
Regarding `CC(=O)C1(C(=O)c2ccccc2)SCC(N(C)C)CS1` (stereo unspecified), the mortality at 100 ppm in assay [3] came out at 35%. Moreover, the mortality in assay [1] was determined as 100%. In addition, in assay [2], the mortality at 500 ppm was 80%.
In the case of `N#CC1(c2ccc(Cl)cc2)SCC(N2CCOCC2)CS1` (stereo unspecified), the mortality in assay [1] is 50%. In assay [2], the mortality at 500 ppm was found to be 90%.
With `N#CC1(c2ccc(Cl)cc2)SCC(N2CCCC2)CS1` (stereo unspecified), the mortality in assay [1] was determined as 50%. Also, the mortality at 500 ppm in assay [2] was found to be 100%.
Consider `CC(=O)C1(C(C)=O)SCC(N(C)C)CS1`, for which the mortality at 100 ppm in assay [3] amounted to 70%. Besides, the mortality in assay [1] is 100%. For the same compound, in assay [2], the mortality at 500 ppm came to 40%.
On to `N#CC1(c2ccc(Cl)cc2)SCC(O)CS1` (stereo unspecified), for which, in assay [1], the mortality is recorded as 0%. For the same compound, in assay [2], the mortality at 500 ppm amounted to 30%.
`CN(C)C1CSCSC1`: in assay [3], the mortality at 100 ppm is 10%. Also, the mortality in assay [1] is listed as 30%. Moreover, in assay [2], the mortality at 500 ppm came out at 20%.
On to `CN(C)C1CSC(C(N)=O)(C(N)=O)SC1`, for which, in assay [3], the mortality at 100 ppm stood at 100%. The mortality in assay [1] was determined as 100%. Moreover, in assay [2], the mortality at 500 ppm is 60%.
Turning to `CCCCN(CCCC)C1CSC(C#N)(c2ccc(Cl)cc2)SC1` (stereo unspecified), in assay [1], the mortality is on record as 50%. The mortality at 500 ppm in assay [2] was determined as 100%.
As for `CN(C)C1CSC(C(=O)c2ccccc2)SC1` (stereo unspecified), the mortality at 100 ppm in assay [3] came out at 80%. Besides, the mortality in assay [1] is 100%. For the same compound, the mortality at 500 ppm in assay [2] turned out to be 50%.
In the case of `O=C(c1ccccc1)C1(C(=O)c2ccccc2)SCC(O)CS1`, the mortality in assay [1] was determined as 0%. In assay [2], the mortality at 500 ppm worked out at 40%.
Take `CN(C)C1CSC(C#N)(c2ccccc2)SC1` (stereo unspecified): the mortality at 100 ppm in assay [3] was determined as 30%. Moreover, the mortality in assay [1] amounted to 100%. In assay [2], the mortality at 500 ppm amounted to 100%.
In the case of `CCOC(=O)C1(C(=O)c2ccccc2)SCC(N(C)C)CS1` (stereo unspecified), the mortality at 100 ppm in assay [3] was 30%. Also, the mortality in assay [1] is listed as 100%. In addition, the mortality at 500 ppm in assay [2] was 90%.
For `CCN(CC)C(=S)SC1(C#N)SCC(N(C)C)CS1` (stereo unspecified), the mortality at 100 ppm in assay [3] is 100%. Moreover, the mortality in assay [1] came to 100%. In addition, the mortality at 500 ppm in assay [2] was determined as 90%.
For `CNC1CSC(C#N)(c2ccc(Cl)cc2)SC1` (stereo unspecified), the mortality in assay [1] is reported as 10%. In assay [2], the mortality at 500 ppm turned out to be 30%.
In the case of `CN(C)C1CSC(C#N)(C#N)SC1`, the mortality at 100 ppm in assay [3] was determined as 100%. For the same compound, in assay [1], the mortality turned out to be 100%. Besides, the mortality at 500 ppm in assay [2] was 90%.
For the compound `CCN(CC)C1CSC(C#N)(c2ccc(Cl)cc2)SC1` (stereo unspecified), in assay [1], the mortality worked out at 100%. Moreover, in assay [2], the mortality at 500 ppm worked out at 100%.
`CN(C)C1CSC(C(=O)c2ccccc2)(C(=O)c2ccccc2)SC1`: the mortality at 100 ppm in assay [3] stood at 100%. Moreover, the mortality in assay [1] was found to be 100%. Also, in assay [2], the mortality at 500 ppm was 80%.
For `N#CC1(c2ccc(Cl)cc2)SCC(OC(=O)Nc2ccc(Cl)cc2)CS1` (stereo unspecified), the mortality in assay [1] stood at 0%. In assay [2], the mortality at 500 ppm is 60%.
Consider `CC1SCC(N(C)C)CS1` (stereo unspecified), for which, in assay [3], the mortality at 100 ppm turned out to be 10%. Moreover, the mortality in assay [1] was found to be 10%. The mortality at 500 ppm in assay [2] amounted to 30%.
Regarding `CN(C)C1CSC(C#N)SC1` (stereo unspecified), the mortality at 100 ppm in assay [3] is 30%. Moreover, the mortality in assay [1] was 100%. Further, the mortality at 500 ppm in assay [2] came to 80%.
Turning to `CCOC(=O)C1(C#N)SCC(N(C)C)CS1` (stereo unspecified), the mortality at 100 ppm in assay [3] was 60%. The mortality in assay [1] is on record as 100%. The mortality at 500 ppm in assay [2] turned out to be 100%.
Regarding `CC(C)C(C(=O)OC1CSC(C#N)(c2ccc(Cl)cc2)SC1)c1ccc(Cl)cc1` (stereo unspecified), the mortality in assay [1] is reported as 0%. For the same compound, in assay [2], the mortality at 500 ppm stood at 20%.
Consider `CC(=O)C1SCC(N(C)C)CS1` (stereo unspecified), for which, in assay [3], the mortality at 100 ppm is 65%. Besides, the mortality in assay [1] stood at 100%. Also, the mortality at 500 ppm in assay [2] turned out to be 100%.
In the case of `CCOC(=O)C1(C(C)=O)SCC(N(C)C)CS1` (stereo unspecified), the mortality at 100 ppm in assay [3] stood at 30%. The mortality in assay [1] is 100%. Besides, the mortality at 500 ppm in assay [2] amounted to 100%.
As to `CNC(=O)OC1CSC(C#N)(c2ccc(Cl)cc2)SC1` (stereo unspecified), the mortality in assay [1] stood at 0%. For the same compound, in assay [2], the mortality at 500 ppm came out at 30%.
Regarding `CNC(=O)C1(C#N)SCC(N(C)C)CS1` (stereo unspecified), the mortality at 100 ppm in assay [3] was found to be 85%. Also, in assay [1], the mortality is 100%. In addition, in assay [2], the mortality at 500 ppm is 100%.
For `CCOP(=S)(OCC)OC1CSC(C#N)(c2ccc(Cl)cc2)SC1` (stereo unspecified), in assay [1], the mortality is given as 0%. Further, the mortality at 500 ppm in assay [2] stood at 40%.
